Laboratory results reported in paper PMC4192545, “Suramin Inhibits Hsp104 ATPase and Disaggregase Activity” (PLoS ONE, 2014).

How the values were obtained:
Hsp104^WT = biological target: T1, Hsp104^WT (Saccharomyces cerevisiae, UniProt P31539); assay: RepA1–70-GFP unfolding assay; type: biochemical, yeast; settings: GroELtrap, ATP:ATPγS 1:1
T1 construct: made in house; host or cells: E. coli BL21-DE3 RIL
Description: RepA1–70-GFP unfolding was performed as described previously. Varying concentrations of Suramin (0, 25, or 100 µM) were included as noted.
Next, we determined that Suramin hinders the unfoldase activity of Hsp104 using a RepA1–70-GFP substrate ( Figure 4A ). To assess RepA1–70-GFP unfolding without interference from spontaneous refolding, we added GroELtrap, which captures unfolded proteins to prevent refolding, [71].
Figure 4 Suramin inhibits Hsp104-mediated substrate unfolding and translocation. (A) RepA1–70-GFP was incubated with Hsp104^WT and GroELtrap plus a 1∶1 mixture of ATP and ATPγS. GFP unfolding was measured by fluorescence. GroELtrap alone is shown as a negative control (red line). Fluorescence values were normalized to initial raw fluorescence for each sample. Values represent mean ±S.D. (n = 3). (B) FITC-casein (0.1 µM) was incubated at 25°C with HAP (1 µM hexamer) and ClpP (21 µM monomer) plus ATP (5 mM) and an ATP regeneration system. Degradation of FITC-casein was monitored by fluorescence. Initial fluorescence was subtracted from raw fluorescence values for each sample. HAP alone is shown as a negative control (red line). Values represent mean ±S.D. (n = 5).

Hsp104 = biological target: T2, Hsp104 (Saccharomyces cerevisiae, UniProt P31539); assay: High-throughput Hsp104 ATPase plate assay (malachite green, 384-well); type: biochemical, yeast; settings: 60 min
T2 construct: made in house; host or cells: E. coli BL21-DE3 RIL
Description: ATPase activity was assessed by the release of inorganic phosphate determined using a malachite green phosphate detection kit (Innova Biosciences, Cambridge, United Kingdom). Microtiter plates (384-well) were purchased from PerkinElmer (Waltham, MA). Three libraries were screened: The NIH Clinical Collection (450 small molecules), the Spectrum Collection (2,000 compounds, MicroSource, Gaylordsville, CT) and the HitFinder Collection (14,400 compounds, Maybridge).
We adapted the inorganic phosphate colorimetric assay to fit a 384-well plate format. A Ź-factor between 0.8 and 1 was calculated for the assay. A 2X Hsp104 stock solution was dispensed into each well using a Biotek microflo (Biotek Instruments, Winooski, VT). Compounds were then transferred using a Janus 96/384 Modular Dispensing Tool (PerkinElmer). Finally, a 2X ATP solution was dispensed using the Biotek microflo. Final concentrations of Hsp104 (monomer) and ATP were 0.25 µM and 1 mM respectively. Seeking to avoid the discovery of competitive inhibitors, we designed our high-throughput screen to use a 100-fold excess of ATP with respect to the test compounds (10 µM each). Final buffer conditions were 20 mM HEPES-KOH pH 7.4, 20 mM NaCl and 10 mM MgCl2. The ATPase reaction was allowed to continue for 60 min, at which time the reaction was terminated by addition of the colorimetric reagent. Absorbance was measured at 635 nm on an EnVision Xcite Multilabel plate reader (PerkinElmer). Hits were tested in duplicate. […] Ten of these were subjected to a 6-point titration (40, 13.3, 4.44, 1.45, 0.49 and 0 µM) in the absence or presence of Triton X-100, BSA, or both Triton X-100 and BSA at the specified concentrations. Heat maps were created in Excel for Mac 2011 (Microsoft Corporation) using the Conditional Formatting feature (Color Scales).
We aimed to identify small molecules capable of inhibiting Hsp104. To do so, we employed high-throughput screening using Hsp104 ATPase activity as a proxy for function. To detect changes in Hsp104 ATPase activity, we used a colorimetric assay detecting free inorganic phosphate (Pi) based on the formation of a colored complex between Pi and a dye molecule under acidic conditions, [44]. Pi is produced from the Hsp104-driven hydrolysis of ATP. The colored complex concentration, a surrogate for Pi concentration and ATPase rate, is determined by measuring the absorbance of a sample at 635 nm. We used recombinant Hsp104 purified from E. coli. An Hsp104 mutant with mutations in both NBD1 and NBD2 Walker B sequence motifs (Hsp104^DWB, carrying ATPase ablating mutations E285Q: E687Q) was used as a negative control for ATPase activity. Hsp104^WT activity results in a high A635 (high ATPase), while Hsp104^DWB activity results in a low A635 (low ATPase). We optimized the Pi colorimetric assay to fit a 384-well plate format. We selected the Hsp104 concentration (0.25 µM) on the basis of previous experience in our laboratory. The ATP concentration was selected to be in a 100-fold excess of ATP with respect to the test compounds. […] We screened 16,850 compounds from the NIH Clinical Collection as well as the Spectrum and Maybridge compound libraries. […] For instance, hexachlorophene and tannic acid inhibit Hsp104 ATPase activity by ∼80%, while Merbromin and Sennoside a inhibit by ∼20% ( Table 1 ).

[1] = biological target: T3, Quantilum recombinant luciferase (Photinus pyralis, UniProt P08659); assay: Luciferase activity determination (native luciferase control); type: biochemical; settings: Suramin 100 µM, luciferase 50 nM; data not shown
T3 construct: purchased Promega (Madison, WI)
Description: Quantilum recombinant luciferase (native) was diluted to 5000, 500, 50, 5 and 0.5 nM in the presence or absence of Suramin. Dilutions were mixed with luciferase assay system (Promega). Luciferase activity was assessed by luminescence measured on a Safire^2 microplate reader.

T2 sequence (P31539 whole entry): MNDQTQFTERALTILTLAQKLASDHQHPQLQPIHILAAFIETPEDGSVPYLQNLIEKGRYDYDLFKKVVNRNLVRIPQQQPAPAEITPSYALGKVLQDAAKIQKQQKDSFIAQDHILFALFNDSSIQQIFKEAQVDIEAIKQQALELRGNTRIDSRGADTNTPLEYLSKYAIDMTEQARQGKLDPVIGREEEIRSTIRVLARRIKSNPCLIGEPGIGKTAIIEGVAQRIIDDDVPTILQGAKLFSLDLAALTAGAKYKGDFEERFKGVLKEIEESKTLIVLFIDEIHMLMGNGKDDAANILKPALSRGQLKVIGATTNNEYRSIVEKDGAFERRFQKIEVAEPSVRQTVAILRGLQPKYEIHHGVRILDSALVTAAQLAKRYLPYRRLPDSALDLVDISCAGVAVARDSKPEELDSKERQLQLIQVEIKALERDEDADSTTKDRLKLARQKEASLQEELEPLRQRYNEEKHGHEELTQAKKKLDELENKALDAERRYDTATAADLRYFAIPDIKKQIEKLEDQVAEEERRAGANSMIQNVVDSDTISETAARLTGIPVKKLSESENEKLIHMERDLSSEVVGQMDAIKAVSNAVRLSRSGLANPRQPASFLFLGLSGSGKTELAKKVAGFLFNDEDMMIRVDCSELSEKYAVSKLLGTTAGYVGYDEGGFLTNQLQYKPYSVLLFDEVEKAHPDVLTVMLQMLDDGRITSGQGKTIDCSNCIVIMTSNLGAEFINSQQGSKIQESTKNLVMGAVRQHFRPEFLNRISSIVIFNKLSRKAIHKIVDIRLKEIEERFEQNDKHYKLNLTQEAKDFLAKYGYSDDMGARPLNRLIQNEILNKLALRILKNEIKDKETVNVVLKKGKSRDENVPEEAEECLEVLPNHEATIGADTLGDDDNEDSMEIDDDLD
T1 sequence (P31539 whole entry): as above
T3 sequence (P08659 whole entry): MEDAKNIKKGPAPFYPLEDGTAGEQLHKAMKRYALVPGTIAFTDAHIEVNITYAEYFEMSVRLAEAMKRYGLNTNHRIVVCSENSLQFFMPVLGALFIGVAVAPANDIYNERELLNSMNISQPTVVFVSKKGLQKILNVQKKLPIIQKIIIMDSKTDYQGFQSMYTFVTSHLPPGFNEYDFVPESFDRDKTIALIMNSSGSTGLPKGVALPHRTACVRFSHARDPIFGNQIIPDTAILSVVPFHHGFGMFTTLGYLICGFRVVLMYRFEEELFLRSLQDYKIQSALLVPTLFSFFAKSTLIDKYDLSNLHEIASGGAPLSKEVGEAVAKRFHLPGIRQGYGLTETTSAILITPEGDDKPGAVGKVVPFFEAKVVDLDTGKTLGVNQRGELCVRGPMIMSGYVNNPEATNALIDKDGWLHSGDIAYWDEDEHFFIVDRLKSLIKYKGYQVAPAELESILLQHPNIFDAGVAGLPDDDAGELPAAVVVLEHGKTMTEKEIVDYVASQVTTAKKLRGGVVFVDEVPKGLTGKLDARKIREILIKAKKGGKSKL

Structure (SMILES): Cc1ccc(C(=O)Nc2ccc(S(=O)(=O)O)c3cc(S(=O)(=O)O)cc(S(=O)(=O)O)c23)cc1NC(=O)c1cccc(NC(=O)Nc2cccc(C(=O)Nc3cc(C(=O)Nc4ccc(S(=O)(=O)O)c5cc(S(=O)(=O)O)cc(S(=O)(=O)O)c45)ccc3C)c2)c1 [Suramin]
- Effect on RepA1–70-GFP unfolding by Hsp104 (Hsp104^WT; Suramin 25 µM): only mildly inhibited
- Effect on RepA1–70-GFP unfolding by Hsp104 (Hsp104^WT; Suramin 100 µM): prevented substrate unfolding
- inhibition at 10 µM (Hsp104; 10 µM compound, Hsp104 0.25 µM monomer, ATP 1 mM, mean ±S.D. (n = 2), read-out: % Inhibition of Hsp104 ATP hydrolysis): 50.8 ± 2.83%
- Inhibition of Hsp104 ATPase activity in the presence of both Triton X-100 and BSA (Hsp104; titration 40-0.49 µM, Triton X-100 and BSA, heat map Figure 1A): most significantly inhibit Hsp104 ATPase activity
- Effect on luciferase activity itself [1]: did not inhibit luciferase activity
